Assays:
[1] = Compound 1 adsorption (loss) to various silicone tubings with polysorbate 80; assay type: physicochemical
Description: Solutions were prepared containing 7% v/v ethanol in 10 mM sodium phosphate buffer at pH 7.4, 75 μg of Compound 1 and selected v/v % amounts of polysorbate 80. Various silicone tubing types were tested as follows: [table] The percentage loss of Compound 1 onto the tubing was calculated in each experiment. Fluorine was assayed before and after the passage through tubing, and the results were as follows: […]

[2] = Loss of Compound 1 to dispensing kit components (syringe, silicone tube, hard tube, filter), evaluated by HPLC; assay type: physicochemical; conditions: 7% v/v ethanol
Description: Solutions were prepared containing 7% v/v ethanol in 0.01 M sodium phosphate buffer at pH 7.4, 75 μg of Compound 1 and either (i) 12% v/v propylene glycol (PG) or (ii) 10% v/v polyethylene glycol 400 (PEG 400). Percentage loss of Compound 1 to various components of a dispensing kit was evaluated by High Performance Liquid Chromatography (HPLC) in the following experiments: […]

CNc1ccc(-c2nc3ccc(O)cc3s2)cc1[18F] [Compound 1, 2-[3-[^18F]fluoro-4-(methylamino)phenyl]-6-hydroxy-benzothiazole]
% Loss Compound 1 ([1]; Experiment 1: 0.8 × 4.0 Pt-cured silicone tubing, polysorbate 80 0 v/v %, 2 min 0 sec, 350 μl): 63%
% Loss Compound 1 ([1]; Experiment 2: 1.6 × 4.8 Pt-cured silicone tubing, polysorbate 80 0 v/v %, 2 min 7 sec, 1400 μl): 41%
% Loss Compound 1 ([1]; Experiment 3: 1.6 × 4.8 Perox-cured silicone tubing, polysorbate 80 0 v/v %, 2 min 6 sec, 1400 μl): 45%
% Loss Compound 1 ([1]; Experiment 4: 0.8 × 4.0 Pt-cured silicone tubing, polysorbate 80 1 v/v %, 2 min 3 sec, 350 μl): 0%
% Loss Compound 1 ([1]; Experiment 5: 1.6 × 4.8 Pt-cured silicone tubing, polysorbate 80 1 v/v %, 2 min 10 sec, 1400 μl): 1%
% Loss Compound 1 ([1]; Experiment 6: 1.6 × 4.8 Perox-cured silicone tubing, polysorbate 80 1 v/v %, 2 min 4 sec, 1400 μl): 0%
% Loss Compound 1 ([1]; Experiment 7: 0.8 × 4.0 Pt-cured silicone tubing, polysorbate 80 5 v/v %, 2 min 2 sec, 350 μl): 0%
% Loss Compound 1 ([1]; Experiment 8: 1.6 × 4.8 Pt-cured silicone tubing, polysorbate 80 5 v/v %, 2 min 4 sec, 1400 μl): 1%
% Loss Compound 1 ([1]; Experiment 9: 1.6 × 4.8 Perox-cured silicone tubing, polysorbate 80 5 v/v %, 2 min 1 sec, 1400 μl): 1%
% loss ([2]; 10% v/v PEG 400, filter, 11 sec, 9.5 ml, 0.01 M phosphate pH 7.4): 51%
% loss ([2]; 10% v/v PEG 400, hard tube, 5 min 4 sec, ~2-2.5 ml, 0.01 M phosphate pH 7.4): 4%
% loss ([2]; 10% v/v PEG 400, silicone tube, 2 min 2 sec, ~1-1.5 ml, 0.01 M phosphate pH 7.4): 8%
% loss ([2]; 10% v/v PEG 400, syringe, 1 min 1 sec, 9.5 ml, 0.01 M phosphate pH 7.4): 1%
% loss ([2]; 12% v/v PG, filter, 10 sec, 9.5 ml, 0.01 M phosphate pH 7.4): 87%
% loss ([2]; 12% v/v PG, hard tube, 5 min 2 sec, ~2-2.5 ml, 0.01 M phosphate pH 7.4): 3%
% loss ([2]; 12% v/v PG, silicone tube, 2 min 23 sec, ~1-1.5 ml, 0.01 M phosphate pH 7.4): 30%
% loss ([2]; 12% v/v PG, syringe, 1 min 4 sec, 9.5 ml, 0.01 M phosphate pH 7.4, 75 μg Compound 1): 0%

Reference: patent publication US8916131B2, “Radiopharmaceutical composition” (GE Healthcare Limited, priority 2007, dated 2014)
